Laboratory results reported in patent US11827628B2, “Compositions and methods for inhibition of the JAK pathway” (Rigel Pharmaceuticals, Inc., priority 2005, dated 2023).

Tests used:
[1] = system: up-regulation of ICAM-1 (CD54) by IFNγ in U937 human monocytic cells; assay: U937 IFNγ ICAM1 FACS Assay; type: cell-based; settings: Homo sapiens, U-937, U937 cells stimulated with IFNγ, ICAM-1 expression by FACS; read-out: IC50, Example 44
Source text: The activity of the compounds of the invention may additionally be characterized by assaying the effect of the 2,4-substituted pyrimidinediamine compounds described herein on A549 lung epithelial cells and U937 cells. A549 lung epithelial cells and U937 cells up-regulate ICAM-1 (CD54) surface expression in response to a variety of different stimuli. Therefore, using ICAM-1 expression as readout, test compound effects on different signaling pathways can be assessed in the same cell type. Stimulation with IL-1β through the IL-1β receptor activates the TRAF6/NFκB pathway resulting in up-regulation of ICAM-1. IFNγ induces ICAM-1 up-regulation through activation of the JAK1/JAK2 pathway. The up-regulation of ICAM-1 can be quantified by flow cytometry across a compound dose curve and EC50, values are calculated.
U937 human monocytic cells up-regulate ICAM-1 (CD54) surface expression in response to a variety of different stimuli. Therefore, using ICAM-1 expression as readout, compound effects on different signaling pathways can be assessed in the same cell type. IFNγ up-regulates ICAM-1 through activation of the JAK/Stat pathway. In this example, the up-regulation of ICAM-1 by IFNγ was assessed.
The U937 human monocytic cell line was obtained from ATCC of Rockville Maryland, catalog number CRL-1593.2, and cultured in RPM1-1640 medium containing 10% (v/v) FCS. U937 cells were grown in 10% RPMI. The cells were then plated at a concentration of 100,000 cells per 160 μL in 96 well flat bottom plates. […] Then 4 μL of test compound was transferred to 76 μL of 10% RPMI resulting in a 10× solution (100 μM test compound, 5% DMSO). For control wells, 4 μL of DMSO was diluted into 76 μL 10% RPMI.
The assay was performed in duplicate with 8 points (8 3-fold dilution concentrations from […]) and with 4 wells of DMSO only (control wells) under stimulated conditions and 4 wells of DMSO only under unstimulated conditions.
The diluted compound plate was mixed 2× using a multimek (Beckman Coulter of Brea, California) and then 20 μL of the diluted compounds was transferred to the 96 well plate containing 160 μL of cells, which were then mixed again twice at low speeds. The cells and compounds were then pre-incubated for 30 minutes at 37° C. with 5% CO2.
The 10× stimulation mix was made by preparing a 100 ng/mL solution of human IFNγ in 10% RPMI. […] The cells were kept under conditions for stimulation for 18-24 hours at 37° C. with 5% CO2.
The cells were transferred to a 96 well round bottom plate for staining and then kept on ice for the duration of the staining procedure. Cells were spun down at 1000 rpm for 5 minutes at 4° C., following which the supernatant was removed. Following removal of the supernatant, 1 μL APC conjugated mouse anti-human ICAM-1 antibody was added per 100 μL FACS buffer. The cells were then incubated on ice in the dark for 30 minutes. Following incubation, […] of FACS buffer was added and the cells were centrifuged at 1000 rpm for 5 minutes at 4° C., following which the supernatant was removed. After removal of the supernatant, 200 μL of FACS buffer was added and the cells were resuspended. After suspension, the cells were centrifuged at 1000 rpm for 5 min at 4° C. Supernatant was then removed prior to resuspension of the cells in 150 μL FACS buffer.
Detection was performed using a BD LSR I System Flow Cytometer, purchased from BD Biosciences of San Jose, California The live cells were gated for live scatter and the geometric mean of ICAM-APC was measured (Becton-Dickinson CellQuest software version 3.3, Franklin Lakes, NJ). Both % live cells and ICAM-1 expression was analyzed. The assays for the test compounds were carried out in parallel with a control compound of known activity.

[2] = system: IL-4 stimulated expression of CD23 in human Ramos B cells (JAK-1 and JAK-3); assay: Assay for Ramos B-Cell Line Stimulated with IL-4 (CD23 upregulation, FACS); type: cell-based; settings: Homo sapiens, Ramos, Ramos B cells stimulated with IL-4, CD23 expression by FACS; read-out: IC50, Example 41
Outline: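 Log-phase Ramos cells, 1 h compound pre-incubation at 37 °C; IL-4 50 units/mL final, 20-24 h; CD23-PE stain, FACS; IC50.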

C#CCn1ccc2cc(Nc3nc(Nc4ccc(C)c(S(N)(=O)=O)c4)ncc3F)ccc21 [IX-1, N2-(3-Aminosulfonyl-4-methylphenyl)-5-fluoro-N4-[1-(propyn-3-yl)indol-5-yl]-2,4-pyrimidinediamine]
IC50 [1]: 1130 nM | IC50 [2]: 89.3 nM

COc1cc(Nc2nc(Nc3ccc(Cl)c(S(N)(=O)=O)c3)ncc2F)ccc1Cl [VI-11, N2-(3-Aminosulfonyl-4-chlorophenyl)-N4-(4-chloro-3-methoxyphenyl)-5-fluoro-2,4-pyrimidinediamine]
IC50 [1]: 7140 nM | IC50 [2]: 259 nM

NS(=O)(=O)c1cccc(Nc2ncc(F)c(Nc3ccc4sccc4c3)n2)c1 [VII-58, N2-(3-Aminosulfonylphenyl)-N4-(benzothiophen-5-yl)-5-fluoro-2,4-pyrimidinediamine]
IC50 [1]: 1100 nM | IC50 [2]: 136 nM

C#CCOc1ccc(Nc2nc(Nc3ccc(C)c(S(N)(=O)=O)c3)ncc2F)cc1F [VI-60, N2-(3-Aminosulfonyl-4-methylphenyl)-5-fluoro-N4-[3-fluoro-4-(prop-2-ynyloxy)phenyl]-2,4-pyrimidinediamine]
IC50 [1]: 410 nM | IC50 [2]: 86.9 nM

Cc1ccc(Nc2ncc(C)c(Nc3ccc4c(c3)NC(=O)CO4)n2)cc1S(N)(=O)=O [VII-30, N2-(3-Aminosulphonyl-4-methylphenyl)-5-methyl-N4-(3-oxo-benz[1,4]oxazin-6-yl)-2,4-pyrimidinediamine]
IC50 [1]: 701 nM | IC50 [2]: 35.8 nM

N#CCN1C(=O)CSc2ccc(Nc3nc(Nc4cccc(S(N)(=O)=O)c4)ncc3F)cc21 [Compound V-12, N2-(3-Aminosulphonylphenyl)-5-fluoro-N4-(3-oxo-4-cyanomethyl-benzo[1,4]thiazin-6-yl)-2,4-pyrimidinediamine]
IC50 [1]: 3040 nM | IC50 [2]: 188 nM

C=Cc1ccc(Nc2nc(Nc3ccc(C)c(S(N)(=O)=O)c3)ncc2F)cc1 [VI-54, N2-(3-Aminosulfonyl-4-methylphenyl)-5-fluoro-N4-(4-vinylphenyl)-2,4-pyrimidinediamine]
IC50 [1]: 1620 nM | IC50 [2]: 147 nM

Cc1ccc(Nc2ncc(F)c(Nc3ccc4c(c3)NC(=O)CS4)n2)cc1S(N)(=O)=O [VII-44, N2-(3-Aminosulphonyl-4-methyl-phenyl)-5-fluoro-N4-(3-oxo-4H-benzo[1,4]thiazin-6-yl)-2,4-pyrimidinediamine]
IC50 [1]: 1230 nM | IC50 [2]: 33 nM

NS(=O)(=O)c1cccc(Nc2ncc(F)c(Nc3cccc(-c4cnco4)c3)n2)c1 [IV-1, N2-(3-Aminosulfonylphenyl)-5-fluoro-N4-[3-(1,3-oxazol-5-yl)phenyl]-2,4-pyrimidinediamine]
IC50 [1]: 272 nM | IC50 [2]: 73.6 nM

NS(=O)(=O)c1cccc(Nc2ncc(F)c(Nc3ccc(CCCCF)cc3)n2)c1 [VI-92, N2-(3-Aminosulfonylphenyl)-5-fluoro-N4-[4-(4-fluorobutyl)phenyl]-2,4-pyrimidinediamine]
IC50 [1]: 1160 nM | IC50 [2]: 83.5 nM

NS(=O)(=O)c1cccc(Nc2ncc(F)c(Nc3ccc(CCCCO)cc3)n2)c1 [VI-89, N2-(3-Aminosulfonylphenyl)-5-fluoro-N4-[4-(4-hydroxybutyl)phenyl]-2,4-pyrimidinediamine]
IC50 [1]: 2040 nM | IC50 [2]: 132 nM

CC#CCOc1ccc(Nc2nc(Nc3ccc(C)c(S(N)(=O)=O)c3)ncc2F)cc1 [VI-61, N2-(3-Aminosulfonyl-4-methylphenyl)-N4-[4-(but-2-ynyloxy)phenyl]-5-fluoro-2,4-pyrimidinediamine]
IC50 [1]: 367 nM | IC50 [2]: 99 nM

Cc1ccc(Nc2ncc(F)c(Nc3ccc(C(F)(F)F)cc3)n2)cc1S(N)(=O)=O [VI-50, N2-(3-Aminosulfonyl-4-methylphenyl)-5-fluoro-N4-(4-trifluoromethylphenyl)-2,4-pyrimidinediamine]
IC50 [1]: 1880 nM | IC50 [2]: 217 nM

Cc1cnc(Nc2ccc(S(N)(=O)=O)cc2)nc1Nc1ccc2c(c1)NC(=O)CO2 [VII-31, N2-(4-Aminosulphonylphenyl)-5-methyl-N4-(3-oxo-benz[1,4]oxazin-6-yl)-2,4-pyrimidinediamine]
IC50 [1]: 7280 nM | IC50 [2]: 125 nM

Cc1cc(Nc2ncc(F)c(Nc3ccc(OC(F)(F)F)c(Cl)c3)n2)cc(S(N)(=O)=O)c1Cl [VI-18, N2-(3-Aminosulfonyl-4-chloro-5-methylphenyl)-N4-(3-chloro-4-trifluoromethoxyphenyl)-5-fluoro-2,4-pyrimidinediamine]
IC50 [1]: 6060 nM | IC50 [2]: 257 nM

Cc1ccc(Nc2ncc(F)c(Nc3ccc4sccc4c3)n2)cc1S(N)(=O)=O [VII-57, N2-(3-Aminosulfonyl-4-methylphenyl)-N4-(benzothiophen-5-yl)-5-fluoro-2,4-pyrimidinediamine]
IC50 [1]: 735 nM | IC50 [2]: 107 nM

Cc1ccc(Nc2ncc(F)c(Nc3cccc4cccnc34)n2)cc1S(N)(=O)=O [VII-77, N2-(3-Aminosulfonyl-4-methylphenyl)-5-fluoro-N4-(quinolin-8-yl)-2,4-pyrimidinediamine]
IC50 [1]: 3540 nM | IC50 [2]: 124 nM

C#CCn1ccc2cc(Nc3nc(Nc4cccc(S(N)(=O)=O)c4)ncc3F)ccc21 [IX-2, N2-(3-Aminosulfonylphenyl)-5-fluoro-N4-[1-(propyn-3-yl)indol-5-yl]-2,4-pyrimidinediamine]
IC50 [1]: 1770 nM | IC50 [2]: 79.5 nM

Cc1ccc(Nc2ncc(F)c(Nc3ccc(Cl)c(Cl)c3)n2)cc1S(N)(=O)=O [VI-6, N2-(3-Aminosulfonyl-4-methylphenyl)-N4-(3,4-dichlorophenyl)-5-fluoro-2,4-pyrimidinediamine]
IC50 [1]: 7700 nM | IC50 [2]: 37.5 nM

Cc1ccc(Nc2ncc(F)c(Nc3ccc(-c4cnco4)cc3)n2)cc1S(N)(=O)=O [IV-6, N2-(3-Aminosulfonyl-4-methylphenyl)-5-fluoro-N4-[4-(1,3-oxazol-5-yl)phenyl]-2,4-pyrimidinediamine]
IC50 [1]: 880 nM | IC50 [2]: 103 nM

C#CCOc1ccc(Nc2nc(Nc3ccc(C(C)C)c(S(N)(=O)=O)c3)ncc2F)cc1 [VI-63, N2-[3-Aminosulfonyl-4-(2-propyl)phenyl]-5-fluoro-N4-[4-(prop-2-ynyloxy)phenyl]-2,4-pyrimidinediamine]
IC50 [1]: 1740 nM | IC50 [2]: 160 nM

C#CCOc1ccc(Nc2nc(Nc3ccc(C)c(S(=O)(=O)NC)c3)ncc2F)cc1 [VI-68, 5-Fluoro-N2-(4-methyl-3-methylaminosulfonylphenyl)-N4-[4-(prop-2-ynyloxy)phenyl]-2,4-pyrimidinediamine]
IC50 [1]: 1810 nM | IC50 [2]: 102 nM

CN1C(=O)C(C)(C)S(=O)(=O)c2ccc(Nc3nc(Nc4ccc(S(N)(=O)=O)cc4)ncc3F)cc21 [VII-12, N2-(4-Aminosulphonylphenyl)-5-fluoro-N4-(2,2,4-trimethyl-1,1,3-trioxo-benzo[1,4]thiazin-6-yl)-2,4-pyrimidinediamine]
IC50 [1]: 31800 nM | IC50 [2]: 602 nM

C#CCOc1ccc(Nc2nc(Nc3ccc(Cl)c(S(N)(=O)=O)c3)ncc2F)cc1 [VI-55, N2-(3-Aminosulfonyl-4-chlorophenyl)-5-fluoro-N4-[4-(prop-2-ynyloxy)phenyl]-2,4-pyrimidinediamine]
IC50 [1]: 1370 nM | IC50 [2]: 122 nM

COc1cc(Nc2nc(Nc3ccc(C)c(S(N)(=O)=O)c3)ncc2F)ccc1Cl [VI-5, N2-(3-Aminosulfonyl-4-methylphenyl)-N4-(4-chloro-3-methoxyphenyl)-5-fluoro-2,4-pyrimidinediamine]
IC50 [1]: 1390 nM | IC50 [2]: 40.5 nM
